What was measured:
[1] = Pharmacokinetics in CD1 mice; assay type: in vivo; details: single oral dose
Protocol: (§1) FIGS. 3A-D. KBU2046 inhibits cancer metastasis and prolongs life. (A, B) Inhibition of PCa metastasis. Cohorts of athymic mice bearing human PCa PC3-M cell orthotopic implants (A), or of non-tumor bearing athymic mice (B), were treated with KBU2046 incorporated into chow, and resultant lung metastasis (A) or plasma KBU2046 concentration (B) measured. Values are the mean±SEM. The relationship between dose and metastasis was evaluated by two-sided ANOVA (A). (C) Comprehensive characterization of KBU2046 phannacokinetics. CD1 mice were dosed with 100 mg KBU2046/kg via oral gavage or intravenous injection (iv), and blood collected at the indicated time points. The dotted horizontal line denotes a concentration of 24 nM, which was the concentration of KBU2046 measured in the blood of mice whose metastasis were suppressed by 92% (A, B). […]
FIG. 11. […] (top graph) Concentration versus time plot, expressed as ng/ml. The 100 mg dosing data was re-plotted and expressed as nM. […] Values are parameter estimates from a naive pooled data approach in which single plasma concentrations measured for individual animals were pooled for both routes of administration of both doses and modeled simultaneously.
Orthotopic implantation of human PCa cells and quantification of distant metastasis was performed as described (Pavese et al., 2013; herein incorporated by reference in its entirety). […]

[2] = tested on: human prostate cells; test: Three day cell growth inhibition, prostate cells; assay type: cell-based; details: 3 days
[3] = tested on: human PCa PC3-M cell orthotopic implants; test: Orthotopic murine model of human PCa metastasis; assay type: in vivo, mice; details: lung metastasis, KBU2046 in chow, dose-dependent
Protocol: as §1
(§2) Orthotopic implantation of human PCa cells and quantification of distant metastasis was performed as described (Pavese et al., 2013; herein incorporated by reference in its entirety). […] Quantification of KBU2046 plasma concentrations was performed by LCMS. […] Critical organs were examined for structural damage using a semi-quantitative histological scoring system (Knodell et al., 1981; herein incorporated by reference in its entirety), while their function was assessed by comprehensive clinical laboratory testing of blood samples. […]

[4] = Plasma KBU2046 concentration in chow-treated athymic mice; assay type: in vivo
Protocol: as §1, §2

[5] = tested on: osteonectin expression in PC3 cells; test: Gene array screen for differentially expressed genes; assay type: cell-based, human
Protocol: FIGS. 21A-C. KBU2046 disrupts osteonectin expression. PC3 cells were treated +/− with 10 uM KBU2046×3 d (A), or were transfected with siRNA to osteonectin (siOST) or non-targeting (siCO) (B), and osteonectin/GAPDH expression measured by qRT/PCR. (C) PC3 cells were transfected with siOST, siCO, treated with +/−KBU2046, and cell invasion measured.
Having identified inhibition of Ser^226 phosphorylation as the molecular target of KBU2046 for inhibition of cell motility, experiments were conducted during development of embodiments herein to identify downstream regulators of its action. PC3 cells with KBU2046, and screened for differentially expressed genes using two different SABiosciences (Qiagen) gene array platforms: Human Metastasis Array and Human Extracellular Matrix and Adhesion Molecule Array. […] No other significant effects were identified. Separate experiments confirmed differential expression by gene-specific qRT/PCR (FIG. 21A). […] Clinically, overexpression of osteonectin in primary PCa has been associated with the development of metastasis to bone.

[6] = tested on: human bone marrow stem cells; test: Hematopoietic stem cell 14-day colony formation assay; assay type: cell-based; details: colonies at 14 days
Protocol: (FIG. 2A) Cell invasion. Human prostate metastatic cells (PC3, PC3-M), and HPV transformed normal (1532NPTX, I542NPTX) and primary cancer (1532CPTX, 1542CPTX) cells, were treated with 10 μM genistein (G), KBU2046 (46) or vehicle (CO), and after 3 days, cell invasion was measured. Values are mean±SEM. (FIG. 2B) Single cell migration. Cell migration was measured after treatment for 3 days with 10 μM KBU2046 or vehicle (control). Values are mean±SEM. *Denotes Student's t test P value </=0.05, compared to controls. […] Values are mean±SEM. (FIG. 2D) Human cord blood hematopoietic stem cell colony formation assay. Values are the mean±SD number of total, CFU-GM, CFU-GEMM or BFU-E colonies at 14 days after treatment with KBU2046. […]
Additional functional measures of toxicity included a NCI-based screen of the NCI 60-cell line panel (Shoemaker, 2006; herein incorporated by reference in its entirety), expression of estrogen-responsive genes by qRT/PCR (Ding et al., 2007; herein incorporated by reference in its entirety), induction of an estrogen-responsive promoter by luciferase assay (Breen et al., 2013; Catherino and Jordan, 1995; herein incorporated by reference in their entireties), and a hematopoietic stem cell 14-day colony formation assay (Bergan et al., 1996; herein incorporated by reference in its entirety). […] The migration of individual cells was assessed by time-lapse video microscopy.

O=C1c2ccccc2OCC1c1ccc(F)cc1 (racemic) [KBU2046, 4′-fluoroisoflavanone]
time plasma concentration maintained >24 nM [1]: 9.3 h
toxicity to human prostate cells (cell growth inhibition) [2]: not toxic
decrease in metastasis [3]: up to 92%
plasma concentrations at which metastasis decreased [4]: 1.1 to 24 nM
suppression of osteonectin expression [5]: 2.0 fold
toxicity to human bone marrow stem cells [6]: not toxic

— patent publication US10780076B2, “Inhibition of cancer cell motility” (Northwestern University, priority 2014, dated 2020)
